One data set has as its target T1, human GIPR (Homo sapiens, UniProt P48546).
T1 construct: expressed in transfected cells; host or cells: wild-type CHO-K1, transient transfection with hGIPR plasmid (Fugene HD)
T1 sequence (P48546 22-466): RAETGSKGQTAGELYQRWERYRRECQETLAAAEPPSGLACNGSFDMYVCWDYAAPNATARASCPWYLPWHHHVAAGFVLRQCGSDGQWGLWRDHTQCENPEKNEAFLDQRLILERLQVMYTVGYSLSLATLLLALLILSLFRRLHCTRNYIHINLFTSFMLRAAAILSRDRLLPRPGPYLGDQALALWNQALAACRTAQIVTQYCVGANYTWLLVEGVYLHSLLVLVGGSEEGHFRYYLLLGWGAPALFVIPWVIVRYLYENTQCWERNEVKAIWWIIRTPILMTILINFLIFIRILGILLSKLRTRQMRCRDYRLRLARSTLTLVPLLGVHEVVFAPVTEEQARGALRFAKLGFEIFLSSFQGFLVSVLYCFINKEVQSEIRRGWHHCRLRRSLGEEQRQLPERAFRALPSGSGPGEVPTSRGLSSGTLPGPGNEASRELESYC
Description: Agonistic activity for GIPR, cAMP HTRF in CHO-K1 cells transiently transfected with hGIPR. In kind it is cell-based. To be noted: Table 4, polypeptide backbone compounds. Here is the method: Wild-type CHO-K1 cells were collected, and the cell suspension was adjusted to an appropriate density, plated in a 6-well plate at 2 mL per well, and placed in a 37° C., 5% CO2 incubator for adhesion overnight. The mixture for transfection (hGIPR plasmid, Fugene HD (Promega Cat #E2311), OptiMEM (Gibco Cat #31985070)) was mixed well, placed at room temperature for 15 minutes, and was added at 100 μL to the corresponding cell well. After transfection of CHO-K1 cells for 24 h, hGIPR was over-expressed on the cell surface. The cells in 6-well plate were collected after the transient transfection, and were washed once with the experimental buffer (DMEM/F12 medium (Gibco Cat #11330032) comprising 0.1% casein (Sigma Cat #C3400)), and the cell density was adjusted with the experimental buffer. The cells were plated at a density of 5000 cells/5 μL/well in a 384-well plate (Sigma Cat #CLS4514), and then 2.5 μL of IBMX working solution (Sigma Cat #17018) prepared with buffer solution (the final concentration of IBMX was 0.5 mM) and 2.5 μL of the gradient diluted polypeptide sample were added into each well, centrifuged at 1000 rpm for 1 min, shaken for 30 seconds to mix well, and incubated at room temperature for 30 minutes. Cisbio cAMP-Gs Dynamic kit (Cisbio Cat #62 AM4PEC) was used for detection. cAMP-d2 and Anti-cAMP-Eu3+-Cryptate were diluted with 20-fold cAMP Lysis & Detection Buffer respectively, and mixed well. 5 μL of the diluted cAMP-d2 solution was added into each well, and then 5 μL of the diluted Anti-cAMP-Eu3+-Cryptate solution was added into each well, shaken for 30 seconds to mix well, and incubated at room temperature for 1 hour in the dark.
HTRF signal was read with Biotek Synergy H1 microplate reader, with the excitation wavelength of 320 nm, and emission wavelength of 620 nm and 665 nm. The signal ratio (665 nm/620 nm*10,000) was calculated, and the signal ratio was nonlinear fitted to the sample concentration with four-parameter equation in GraphPad Prism 6, resulting in the EC50 values.

A further data set has as its target T2, human GLP-1R (Homo sapiens, UniProt P43220).
T2 construct: expressed in transfected cells; host or cells: CHO-K1 (stably transfected, with CRE-luc reporter)
The data set can be described thus: Agonistic activity for GLP-1R, cAMP HTRF in CHO-K1/GLP-1R/CRE-luc stably transfected cells. The data set is classed as cell-based. To be noted: Table 4, polypeptide backbone compounds.

A short description of data set [1]: Stability of the compounds in SD rat plasma (LC-MS). In kind it is in vitro ADME. To be noted: Table 6. The procedure:
Five microliters of samples with concentrations of 20, 50, 100, 200, 500, 1000, 2000, 5000, 10000 ng/ml were added into 45 microliters of SD rat plasma, and the compound contents were detected by LC-MS, and a standard curve was plotted. 5 microliters of the polypeptide solution with a concentration of 1 mg/ml was added into 45 microliters of SD rat plasma. Five samples were prepared for each test compound, and 1 sample was taken out at 0 min, 30 min, 60 min, 120 min, and 240 min respectively. The content of the residual compounds was detected by LC-MS. The content at 0 min was used as control (100%), and the relative contents of the residual compound in the sample at other time points were calculated.

Square brackets hold non-standard residues; d marks the D form. Aib = CC(C)(N)C(=O)O

T2 sequence (P43220 24-463): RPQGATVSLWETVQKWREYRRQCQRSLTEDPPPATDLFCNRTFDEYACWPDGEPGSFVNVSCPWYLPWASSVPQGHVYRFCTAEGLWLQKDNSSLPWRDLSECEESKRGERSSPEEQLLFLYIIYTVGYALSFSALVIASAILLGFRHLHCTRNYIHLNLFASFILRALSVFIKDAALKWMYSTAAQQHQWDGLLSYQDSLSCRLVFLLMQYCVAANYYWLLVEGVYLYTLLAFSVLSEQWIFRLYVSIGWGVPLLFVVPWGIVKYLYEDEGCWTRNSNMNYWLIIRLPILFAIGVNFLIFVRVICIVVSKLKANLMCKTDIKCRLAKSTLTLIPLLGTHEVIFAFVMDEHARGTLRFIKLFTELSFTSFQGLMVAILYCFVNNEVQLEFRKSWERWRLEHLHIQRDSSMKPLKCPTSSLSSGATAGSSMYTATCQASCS

Take “H-Y[Aib]EGTFTSDYSIYLEKEAAKEFINWLLAGGPSSGAPPPS-NH2 [Compound 63]”: the EC50 came to 0.02 nM at human GIPR and 0.01 nM at human GLP-1R. In data set [1] (0 min (control, set to 100%)), the “Relative content of the residual compounds in plasma (%) 0 min” value is listed as 100.00%. Moreover, the “Relative content of the residual compounds in plasma (%) 30 min” value in data set [1] (30 min) amounted to 99.31%. For the same substance, the “Relative content of the residual compounds in plasma (%) 60 min” value in data set [1] (60 min) turned out to be 98.56%. In addition, the “Relative content of the residual compounds in plasma (%) 120 min” value in data set [1] (120 min) worked out at 109.18%. For the same substance, the “Relative content of the residual compounds in plasma (%) 240 min” value in data set [1] (240 min) was 108.30%.

Source of the values: patent publication US12678489B2, “Multi-receptor agonist and medical use thereof” (JIANGSU HANSOH PHARMACEUTICAL GROUP CO., LTD., priority 2019, dated 2026).
